For 13 compounds, TGI and GI50 results are on record in PubChem BioAssay (NCI).

Common to all, as to assay: growth of human tumour cells (NCI), 48 h
Assay [1] relates to UO-31 renal.
For assay [2], the system named is DU-145 prostate.
The test system of assay [3] is NCI-H226 lung.
Assay [4] concerns CCRF-CEM leukemia.
In assay [5] the test system is KM12 colon.
Assay [6] deals with HOP-62 NSCLC.
Assay [7] deals with TK-10 renal.
In assay [8] the test system is SK-MEL-5 melanoma.
Assay [9] relates to SF-268 CNS.
Assay [10] has as its system NCI/ADR-RES ovarian.

Where “and” joins values, the source holds several entries; their conditions need not be identical. Equal entries are not always repeated.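 Compound exposure: 48 hours, 5 concentrations, 96-well plates. At the GI50, growth is halved. TGI: total growth inhibition.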

On to `CCOC(=O)c1c(NC(=S)NCc2ccccc2)sc2c1CCN(C)C2`, for which the TGI is over 100 µM in assay [1]; over 100 µM in assay [2]; over 100 µM in assay [3]; 40.3 µM in [4]; over 100 µM in [5]; over 100 µM in assay [6]. Besides, the TGI in assay [7], in [8], in assay [9] and in [10] was over 100 µM each time.

Regarding `CC(C)(C)CC(C)(C)Cc1ccc(OCCOCC[N+](C)(C)Cc2ccccc2)cc1`, the GI50 in [1] was 14.2 µM; in assay [2] it was 3.68 µM; in [3], 1.79 µM; in [4] it was 1.31 µM; in [6], 2.31 µM; in assay [7] it was 2.83 µM. The GI50 in assay [8] was 0.517 µM; in assay [9], 1.59 µM; in assay [10], 21.5 µM. The TGI in [1] is 34.7 µM; in [2], 13.8 µM; in assay [3], 6.72 µM; in assay [4], 3.72 µM; in [6], 6.73 µM; in [7] it was 12.7 µM. The TGI was 1.79 µM in assay [8], 3.19 µM in [9] and 58.6 µM in [10].

Take `CN1CCN(c2ccc3nc(-c4ccc(OCCCN5C(=O)c6cccc7cccc(c67)C5=O)cc4)[nH]c3c2)CC1`: the GI50 in [1] was 14.5 µM; in assay [3], 19.8 µM; in [4] it was 2.62 µM; in assay [7] it was 8.54 µM; in [9], 26.3 µM; in assay [10], 2.09 µM. For the same compound, the TGI is 43.1 µM in [1]; 51.2 µM in [3]; 7.48 µM in assay [4]; over 71.2 µM in assay [7]; 99.8 µM in assay [9]; 4.7 µM in assay [10].

Take `COc1cc2c(cc1-c1c(C)noc1C)ncc1nc(C3CCCCC3)n(C3CCC(OC(F)F)CC3)c12` (configuration not stated): the GI50 in assay [2] was 3.52 µM; in [5], 3.43 µM; in assay [6], 1.97 µM; in [9] it was 5.05 µM. The TGI in assay [2], in assay [5], in assay [6] and in assay [9] was over 100 µM each time.

As to `COc1cccc2c1C(=O)c1c(O)c3c(c(O)c1C2=O)C[C@@](O)(C(C)=O)C[C@@H]3OC1CC(N)C(O)C(C)O1` (some centres not stated), the GI50 in [5] was 0.0443 µM; in [6], under 0.0127 µM; in [7] it was 0.144 µM; in [8], under 0.018 µM; in assay [9] it was 0.0183 µM.

Regarding `NC(=O)c1cc2ccccc2c(N=Nc2ccccc2)c1O`, the TGI in [1], in [2], in [3], in assay [4], in [5] and in [6] was over 100 µM each time. Besides, the TGI in assay [7], in assay [8], in [9] and in [10] was over 100 µM in each case.

`CCP(=O)(CC)C(Cl)(Cl)C(=O)NC`: the TGI in [1], in assay [2], in [3], in assay [4], in [6] and in assay [7] was over 100 µM throughout. Moreover, the TGI in [8] and in [10] was over 100 µM in each case.

Regarding `N#Cc1ccc(Nc2nc3nc[nH]c3c(=O)[nH]2)cc1`, the TGI in [1], in assay [2], in assay [3], in assay [4], in [5] and in assay [6] was over 100 µM in each case. The TGI in assay [7], in assay [8], in [9] and in [10] was over 100 µM in each case.

For the compound `CC(=O)OC1CC2(O)C(CCC3(C)C(c4ccc(=O)oc4)CCC32O)C2(C)CCC(O)C=C12` (configuration not stated), the GI50 in assay [1] is 0.0667 µM; in [3], 0.0808 µM; in [4], 0.00387 µM and 0.0375 µM; in assay [5] it was 0.033 µM and 0.0814 µM; in assay [6], 0.0123 µM; in [8], 0.0375 µM. Moreover, the GI50 in [9] is 0.00796 µM; in assay [10] it was 0.0375 µM. In addition, the TGI was 0.131 µM and 0.095 µM in assay [1]; 0.184 µM and 0.183 µM in assay [3]; 0.0519 µM and 0.0405 µM in [4]; 0.213 µM and 0.676 µM in assay [5]; 0.105 µM and 0.048 µM in assay [6]; 0.046 µM and 0.04 µM in assay [8]. Further, the TGI in assay [9] is 0.149 µM and 0.0437 µM; in assay [10] it was 0.143 µM and 0.255 µM.

In the case of `O=c1c(-c2ccccc2)c[nH]c2cc([N+](=O)[O-])c(/C(Cl)=C/c3ccccc3)cc12`, the TGI in assay [1] is 36.8 µM; in [3], 34 µM; in assay [4], 20.3 µM; in assay [5], 38.6 µM; in assay [6] it was 52 µM; in [8], 25.8 µM. In addition, the TGI was 16.7 µM in assay [9] and 25.5 µM in assay [10].

For the compound `Cc1c2cc[n+](C)cc2c(C)c2c1[nH]c1ccc(O)cc12`, the TGI in assay [1] is 86.8 µM; in [2], 74.7 µM; in assay [3], 16.6 µM; in assay [4] it was over 92.6 µM; in assay [5] it was over 86.9 µM; in assay [6] it was 35 µM. Also, the TGI in assay [7] was over 100 µM; in assay [8], 58.8 µM; in [9], 23.7 µM; in assay [10], over 100 µM.

For the compound `O=C(CCN1CCCC1)Nc1ccc2c(NCCCCc3ccccc3)c3ccccc3nc2c1`, the GI50 is 1.55 µM in [1]; 1.15 µM in assay [2]; 1.15 µM in [3]; 1.33 µM in assay [5]; 1.4 µM in [7]; 1.56 µM in assay [8]. Moreover, in [10], the GI50 was 11.3 µM. Further, the TGI in assay [1] amounted to 2.92 µM; in [2], 2.39 µM; in assay [3] it was 2.49 µM; in [5], 2.74 µM; in assay [7], 2.86 µM; in assay [8], 2.91 µM. For the same compound, in assay [10], the TGI worked out at 59.4 µM.

Regarding `Cc1c2cc[n+](C)cc2c(COC2OC(CO)C(O)C2O)c2c3ccccc3n(C)c12` (configuration not stated), the TGI in assay [1] was over 100 µM; in assay [3] it was over 94.1 µM; in assay [4] it was over 100 µM; in [5], over 100 µM; in [6], over 74.2 µM; in assay [8] it was over 100 µM. Also, the figures for the TGI in [9] and in assay [10] were over 97 µM and over 100 µM, respectively.
